The nature of data set [1]: Protein (cytochrome c) release and metabolism of sphingosine in isolated mitochondria. It is filed as biochemical. The settings on record: compound alone, maximum.
For data set [2], the system named is ceramide channel in planar phospholipid membrane. In words: Electrophysiological recordings on planar phospholipid membranes. In kind it is biochemical. The text has this: Planar phospholipid membranes were produced by the monolayer method (Montal, M. et al. (1972) “FORMATION OF BIMOLECULAR MEMBRANES FROM LIPID MONOLAYERs AND A STUDY OF THEIR ELECTRICAL PROPERTIES,” Proc. Natl. Acad. Sci. USA 69:3561-3566) as modified by Colombini, M. (1987) (“CHARACTERIZATION OF CHANNELS ISOLATED FROM PLANT MITOCHONDRIA,” Methods Enzymol. 148:465-475), across a 100-μm-diameter hole in a Saran partition. Monolayers were produced using a solution of 0.5% w/v asolectin, 0.5% w/v DiPhyPC, 0.1% w/v cholesterol in hexane. This technique produces solvent-free phospholipid membranes whose lipid composition (focusing on the polar head-groups) is similar to that found in the mitochondrial outer membrane. It differs from the natural membrane in lacking proteins.
The aqueous solutions contained 1 mM MgCl2, and 5 mM Pipes pH 6.8 with KCl varying from 0.10 M to 1.0 M. The KCl concentration on one side of the membrane, referred to as the “trans” side, was always 0.10 M, whereas the other side (the “cis” side) was adjusted as needed. The transmembrane voltage was electronically clamped and the current through the membrane was recorded. The voltage values indicated are the voltage differences across the membrane cis side minus trans side.
C2-ceramide was stirred into the aqueous solution on each side of the membrane from a solution in DMSO, generally 0.5 mg/ml. Single or multiple additions, typically […] each, yielding a final concentration of 2 μg/ml, were made to achieve a desired level of conductance. Sphingosine additions of 5 μl were made from a solution in DMSO (4 mg/mL) yielding a final concentration of 4 μg/mL.
The observation that anti-apoptotic Bcl-2 family proteins inhibit ceramide channel formation in isolated yeast and rat liver mitochondria correlates with previous reports showing inhibition of ceramide-induced apoptosis in whole cells by these proteins. Thus the results directly tie ceramide-induced mitochondrial-mediated apoptosis with the Bcl-2 family of proteins known to regulate these events. To address whether the antiapoptotic proteins act directly on ceramide channels or work by an indirect action, their affects on ceramide channels in solvent-free planar phospholipid membranes was tested. This is a defined system free of other proteins. When C16-ceramide is added to the aqueous solution bathing one side of a planar phospholipid membrane, it results in discontinuous increases in conductance under voltage-clamp conditions, the defining characteristic of channel formation in membranes. These conductance increments are the enlargement of one ceramide channel rather than the formation of multiple ceramide channels in parallel (Siskind, L. J. et al. (2003) “ENLARGEMENT AND CONTRACTURE OF C2-CERAMIDE CHANNELS,” Biophys. J. 85:1560-1575). […]

The conditions of data set [3]: published value; cited from earlier work.
The subject of another data set is ceramide channels. The data set can be described thus: Screening for influence on ceramide channel formation in liposomes or planar membranes. It is filed as biochemical. The text has this: In one embodiment, such methods comprise screening compounds for their ability to influence the formation of ceramide channels in liposomes or planar membranes. […] Such liposomes or planar membranes can be produced using any of a variety of lipids. Preferably, however, the constituents of the liposomes or planar membranes will be selected to mimic those of the MOM, or to have relevance to such membranes (see, Weissig, V. et al. (2006) “LIPOSOMES AND LIPOSOME-LIKE VESICLES FOR DRUG AND DNA DELIVERY TO MITOCHONDRIA,” J. Liposome Res. 16(3):249-264; Torchilin, V. P. (2006) “RECENT APPROACHES TO INTRACELLULAR DELIVERY OF DRUGS AND DNA AND ORGANELLE TARGETING,” Annu. Rev. Biomed. Eng. 8:343-375; Elrick, M. J. et al. (2006) “SPHINGOSINE, A PRODUCT OF CERAMIDE HYDROLYSIS, INFLUENCES THE FORMATION OF CERAMIDE CHANNELS,” Biophys. J. 1; 91(5):1749-1756; Bathori, G. et al. (2006) “CA2+-DEPENDENT CONTROL OF THE PERMEABILITY PROPERTIES OF THE MITOCHONDRIAL OUTER MEMBRANE AND VOLTAGE-DEPENDENT ANION-SELECTIVE CHANNEL (VDAC),” J. Biol. Chem. 281(25):17347-17358; Stiban, J. et al. (2006) “DIHYDROCERAMIDE HINDERS CERAMIDE CHANNEL FORMATION: IMPLICATIONS ON APOPIOSIS,” Apoptosis 11(5):773-780; Stover, T. C. et al. (2005) “SYSTEMIC DELIVERY OF LIPOSOMAL SHORT-CHAIN CERAMIDE LIMITS SOLID TUMOR GROWTH IN MURINE MODELS OF BREAST ADENOCARCINOMA,” Clin. Cancer Res. 11(9):3465-3474).

Turning to `CCCCCCCCCCCCC/C=C/[C@@H](O)[C@@H](N)CO` [sphingosine], in data set [1], the “release of cytochrome c from isolated mitochondria” value is at most 15%. In data set [2] (C2-ceramide 3 μg/mL, sphingosine 8 μg/mL at t=0, KCl gradient), the “time at which conductance reached a minimum” value was 20 min. In addition, in data set [2] (C2-ceramide channel (9 μg/mL), sphingosine 4 μg/mL cis side, 10 mV), the “time over which membrane conductance decreased after addition” value is 15 to 20 min. Moreover, the “effect on formed ceramide channel” value in data set [2] (C2-ceramide channel, sphingosine 4 μg/mL, conductance reached level of unmodified membrane) is listed as “completely disassembled”. Also, in data set [3], the CMC result is reported as “more than 30 μg/mL”. Also, the “concentration at which very potent inhibitor of ceramide channels” value with ceramide channels turned out to be 5 µM.

Values taken from patent US7897401B2, “Control of apoptosis by controlling the propensity of ceramide channel formation” (University of Maryland, College Park, priority 2005, dated 2011).
